# Assay results from patent US8247170B2, “Detection of penicillin tolerance in Group B Streptococcus: single nucleotide polymorphisms in penicillin binding protein 4” (priority 2008, dated 2012).
# Test system: GBS laboratory strains
# Assay: Penicillin induced lysis (OD600 change)
# Assay type: cell-based, Group B Streptococcus
# Conditions: 100×MIC90 Penicillin G 22 hours
# Experimental: In this series of study, the three GBS laboratory strains (i.e., A909, NEM316, and O90R) were cultured for 18 hours at 37° C. in THB. Subcultures in THB were subsequently grown to exponential phase (OD600˜0.3) at 37° C. Cells were treated with 100×MIC90 Penicillin G for an additional 22 hours. OD600 of these cell cultures before (O.D. initial) and after penicillin treatment (O.D. experimental) was measured (N=3). The values of O.D. experimental were subtracted from O.D. initial. (See FIG. 2).
# (I) Bacterial Strains and Culture Conditions. GBS strains A909 (serotype IA), 515 (serotype IA), NEM316 (serotype III), COHI (serotype III), 2603V/R (serotype V) and O90R (non-typable) were used in this study. E. coli Top10 cells were used for the recombination experiments. GBS was cultured in Todd Hewitt broth (THB) or Tryptic Soy 5% sheep blood (TS) media and E. coli in Luria-broth (LB) medium or agar. Antibiotics were used at the following concentrations: for GBS—penicillin G (MIC90 0.06 μg ml^−1), ampicillin (MIC90 0.12 μg ml^−1), vancomycin (MIC90 2 μg ml^−1), cefazolin (MIC90 1 μg ml^−1) and chloramphenicol (5 μg ml^−1); for E. coli—ampicillin (50 μg ml^−1) and chloramphenicol (5 μg ml^−1). Both GBS and E. coli cultures were grown at 37° C. (II) Tolerance Using the MBC:MIC Ratio Method. Three GBS laboratory strains (i.e., A909, NEM316, and O90R) were cultured overnight for 18 h at 37° C. in THB. Subcultures in THB were subsequently grown to exponential phase (OD600˜0.3; i.e. 5×10^5 cfu/ml) at 37° C. Cell cultures were then exposed to different concentrations of antibiotics (Penicillin G, Ampicillin, Cefozolin or Vancomycin). […] Cell cultures were allowed to re-grow for an additional 24 h at 37° C. before the OD600 was measured. […] The initial (in.) cellular ATP concentration ([ATP]) was measured using the ENLITEN (Promega) luciferase based reaction kit. […] The experimental (exp.) cellular ATP was extracted and the concentration was measured as stated above. […]
smiles,measurement,setting,value
CC1(C)S[C@@H]2[C@H](NC(=O)Cc3ccccc3)C(=O)N2[C@H]1C(=O)O [Penicillin G],"change in OD600 (lysis, FIG. 2)",GBS strain A909,decrease in OD
same,"change in OD600 (lysis, FIG. 2)",GBS strain NEM316,did not
same,"change in OD600 (lysis, FIG. 2)",GBS strain O90R,did not
